Data: PMC5571287 (Antimicrobial Agents and Chemotherapy, 2017)
Read-outs that look alike come from different tables or passages of the source.

What was measured:
[1] = system: PIV3 (C243 strain); assay: organism not typed; format: cell-based, parainfluenza virus 3; conditions: PIV3, LLC-MK2 7.1
[2] = system: RSVB 1000; assay: microbe, parasite or virus in culture; format: cell-based; conditions: human respiratory syncytial virus, RSVB 1000, clinical, 3 parameter curve fit
[3] = system: RSVA 1211; conditions: human respiratory syncytial virus
[4] = Antiviral panel: cytotoxicity; format: cell-based; conditions: human, Huh-7 cells with HCV GT1b replicon; Huh-7, GT1b replicon
[5] = system: HEp-2 cells; assay: Cell viability in HEp-2 cells (resazurin); conditions: concentrations up to 14 μM
[6] = Cell viability in HEp-2 cells (resazurin); conditions: human, HEp-2 cells
[7] = system: RSV A2; conditions: human respiratory syncytial virus
[8] = system: RSV A 2000/3-4; assay: CPE 1, resazurin 384-well CPE assay in HEp-2; format: cell-based; conditions: human respiratory syncytial virus
Protocol: (§1) For known clinical strains (RSV A 1997/12-35, 2001/2-20, 200/3-4, and Memphis 37), a 384-well-format resazurin-based CPE assay was conducted.

[9] = system: RSV A 2001/2-20; assay: CPE 1, resazurin 384-well CPE assay in HEp-2; format: cell-based; conditions: human respiratory syncytial virus
Protocol: as §1

[10] = system: RSV A 1997/12-35; assay: CPE 1, resazurin 384-well CPE assay in HEp-2; format: cell-based; conditions: human respiratory syncytial virus
Protocol: as §1

[11] = system: RSV A Memphis 37c; assay: CPE 1, resazurin 384-well CPE assay in HEp-2; format: cell-based; conditions: human respiratory syncytial virus
Protocol: as §1

[12] = system: RSV A Long; conditions: human respiratory syncytial virus
[13] = system: RSVB 1276; assay: microbe, parasite or virus in culture; format: cell-based; conditions: human respiratory syncytial virus, RSVB 1276, clinical, 3 parameter curve fit
[14] = system: RSV A Long; assay: microbe, parasite or virus in culture; format: cell-based, respiratory syncytial virus
[15] = system: RSV A2; assay: RSV A2-infected BALB/c mice, virus load in lung homogenate; format: in vivo
[16] = system: RSV A 1998/3-2; assay: CPE 2, neutral red 96-well CPE assay in HEp-2; format: cell-based; conditions: human respiratory syncytial virus
Protocol: (§2) For RSV A 2001/3-12, 1998/3-2, and USU⃥v1225, CPE was induced in HEp-2 cells for 7 days and the plates were then stained with neutral red dye for approximately 2 h. The intracellular incorporated dye was extracted in 50:50 Sorensen citrate buffer-ethanol and the absorbance read on a spectrophotometer. The optical density (OD) of test wells was converted to percentage of cell and virus controls. […] The virus inocula were ∼63 50% cell culture infectious doses (CCID50) per well for 2001/3-12, ∼40 CCID50/well for 1998/3-2, and ∼32 CCID50/well for USU\v1225. This assay was conducted in Utah State University (Logan, UT).

[17] = system: RSV A USU\v1225; assay: CPE 2, neutral red 96-well CPE assay in HEp-2; format: cell-based; conditions: human respiratory syncytial virus
Protocol: as §2

[18] = system: RSV A 2001/3-12; assay: CPE 2, neutral red 96-well CPE assay in HEp-2; format: cell-based; conditions: human respiratory syncytial virus
Protocol: as §2

[19] = system: RSV B 9320; assay: CPE assay in HEp-2 cells (resazurin); format: cell-based; conditions: human respiratory syncytial virus
[20] = system: known RSV A clinical isolates; assay: CPE assays, known RSV A clinical isolates in HEp-2; format: cell-based; conditions: human respiratory syncytial virus, read-out: IC50, range over known RSV A clinical isolates
Protocol: as §2, §1

[21] = system: Influenza virus H1N1 (A/PR/34 strain); assay: microbe, parasite or virus in culture; format: cell-based; conditions: Influenza virus H1N1, A549
[22] = system: RSVA 689; assay: microbe, parasite or virus in culture; format: cell-based; conditions: human respiratory syncytial virus, RSVA 689, clinical
[23] = HEp-2, read-out: PCR IC50 (0.3 Log PFUe reduction) (converted)
[24] = HEp-2, read-out: PCR IC90 (1 Log PFUe reduction) (converted)
[25] = intranasal 0.2 mg/ml (0.19 mg/kg)

## Cc1cnc(N2CC3(CCOCC3)C2)c(C(=O)Nc2ccc(C(=O)N3CCc4cc(C(=O)Nc5c(C)cccc5F)sc4-c4ccccc43)cc2)c1 [PC786, N-(2-fluoro-6-methylphenyl)-6-(4-(5-methyl-2-(7-oxa-2-azaspiro[3.5]nonan-2-yl)nicotinamido)benzoyl)-5,6-dihydro-4H-benzo[b]thieno[2,3-d]azepine-2-carboxamide]
[1]
  IC50: > 14000 nM
  IC90 or IC95: >14000 nM
[2]; read-out: CPE IC50
  IC50: 13.4 nM
[2]; read-out: CPE IC90
  IC90: 342 nM
[3]; HEp-2, read-out: RSV titre in supernatant IC50 (0.3 Log PFUe reduction) (converted)
  IC50: < 0.09 nM
[3]; HEp-2, read-out: RSV titre in supernatant IC90 (1 Log PFUe reduction) (converted)
  IC90: 1.05 nM
[4]
  CC50 at 3 days: > 14000 nM
[5]
  Cell viability: did not affect cell viability
[6]
  CC50: > 14000 nM
[7]; [23]
  IC50: 1.52 nM
[7]; [24]
  IC90: 1.69 nM
[8]
  IC50: 0.14 nM
[9]
  IC50: 0.53 nM
[10]
  IC50: 0.35 nM
[11]
  IC50: 0.5 nM
[12]; [23]
  IC50: 2.65 nM
[12]; [24]
  IC90: 3.45 nM
[13]; read-out: CPE IC50
  IC50: 50.6 nM
[13]; read-out: CPE IC90
  IC90: 821 nM
[14]; HEp-2
  IC90 or IC95: <0.42 nM
[14]; human respiratory syncytial virus, HEp-2, plaque reduction, applied 2 h before infection
  IC50: < 0.42 nM
[15]; [25]
  Virus titer of lung homogenate, interquartile range: 1.9–3.0 log PFU/ml
  Virus titer of lung homogenate, median: 2.5 log PFU/ml
[15]; intranasal 0.2 mg/ml (0.19 mg/kg) once daily days −1 to 3
  Virus titer of lung homogenate, geometric mean ± SD: 2.4 ± 0.59 log PFU/ml
[15]; intranasal 2.0 mg/ml (1.9 mg/kg)
  Virus titer of lung homogenate, median: <0.33 (LOQ) log PFU/ml
[15]; intratracheal 2.0 mg/ml (3.2 mg/kg)
  Virus titer of lung homogenate, median: <0.33 (LOQ) log PFU/ml
[16]
  IC50: 2.5 nM
[17]
  IC50: 1.3 nM
[18]
  IC50: 3.2 nM
[19]
  IC50: 29.1 nM
  IC90: 64.3 nM
[20]
  IC50: 0.14 to 3.2 nM
[21]
  IC90 or IC95: >14000 nM
[21]; unidentified influenza virus
  IC50: > 14000 nM
[22]; read-out: CPE IC50
  IC50: 0.5 nM
[22]; read-out: CPE IC90
  IC90: 0.6 nM
